Measured values: patent US6713506B2, “Tea polyphenol esters and analogs thereof for cancer prevention and treatment” (University of South Florida, priority 2000, dated 2004)
Blank lines part the entries; values can stand above or below the compound they belong to. Non-standard residues stand in square brackets, D forms with d. Residues, ends and D or L forms follow the SMILES beside them. *: point of attachment. Nle = CCCC[C@H](N)C(=O)O; Nva = CCC[C@H](N)C(=O)O; Cbz = O=C(OCc1ccccc1)*

What was measured:
[1] = biological target: chymotrypsin-like activity of purified 20S proteasome (UniProt Q9P992); assay type: biochemical; conditions: for IC50: read-out: IC50 towards the chymotrypsin-like activity of purified 20S proteasome
Description: (§1) FIG. 8. […] A). […] Initially, 0.5 μg of purified 20S proteasome is incubated with 20 μM of a fluorogenic peptide substrate, Suc-Leu-Leu-Val-Tyr-AMC, for 30 min at 37° C. in 100 μl of assay buffer (20 mM Tris-HCl, pH 8.0) with various concentrations of tannic acid. After incubation, the reaction mixture is diluted to 200 μl with the assay buffer, followed by measurement of the hydrolyzed 7-amido-4-methyl-coumarin (AMC) groups using a fluorometer with an excitation filter of 380 nm and an emission filter of 460 nm. B). […] Tannic acid (0.3 μg/ml) and Glucose (180 μg/ml) are used in the proteasome activity assay as described above. C). […] Purified calpain I (3 μg) protein is incubated with 40 μM of a fluorogenic peptide substrate, Suc-Leu-Tyr-AMC, for 30 min at 37° C. in 100 μl of assay buffer (50 mM Tris-HCl, pH 7.5, containing 50 mM NaCl, 1 mM EDTA, 1 mM EGTA, 5 mM β-Mercaptoethanol, 5 mM CaCl2, and 0.1% CHAPS) in the absence (control) or presence of 5 μg/ml of tannic acid or 0.18 μg/ml of calpeptin (calpain inhibitor).
(§2) Inhibition of the proteasome activity in vitro by tea polyphenols—To measure the 20S proteasome chymotrypsin-like activity, 0.5 μg of a purified 20S proteasome (Calbiochem) is incubated with 20 μM of a fluorogenic peptide substrate, Suc-Leu-Leu-Val-Tyr-AMC (Calbiochem), for 30 min at 37° C. in 100 μl of assay buffer (20 mM Tris-HCl, pH 8.0), with or without tea polyphenols (purity >95%; Sigma) or tea extract. After incubation, the reaction mixture is diluted to 200 μl with the assay buffer, followed by measurement of the hydrolyzed 7-amido-4-methyl-coumarin (AMC) groups using a VersaFluor™ Fluorometer with an excitation filter of 380 nm and an emission filter of 460 nm (Bio-Rad).

purified calpain I = biological target: T1, purified calpain I (Homo sapiens, UniProt P07384); test: Calpain I activity assay; assay type: biochemical; conditions: FIG. 3B: EGCG 10 μM, calpeptin 1 μM
T1 construct: 3 μg purified calpain I (Human Erythrocytes, Calbiochem) is incubated; purchased Calbiochem; host or cells: human erythrocytes (tissue-purified)
T1 sequence (P07384 1-714): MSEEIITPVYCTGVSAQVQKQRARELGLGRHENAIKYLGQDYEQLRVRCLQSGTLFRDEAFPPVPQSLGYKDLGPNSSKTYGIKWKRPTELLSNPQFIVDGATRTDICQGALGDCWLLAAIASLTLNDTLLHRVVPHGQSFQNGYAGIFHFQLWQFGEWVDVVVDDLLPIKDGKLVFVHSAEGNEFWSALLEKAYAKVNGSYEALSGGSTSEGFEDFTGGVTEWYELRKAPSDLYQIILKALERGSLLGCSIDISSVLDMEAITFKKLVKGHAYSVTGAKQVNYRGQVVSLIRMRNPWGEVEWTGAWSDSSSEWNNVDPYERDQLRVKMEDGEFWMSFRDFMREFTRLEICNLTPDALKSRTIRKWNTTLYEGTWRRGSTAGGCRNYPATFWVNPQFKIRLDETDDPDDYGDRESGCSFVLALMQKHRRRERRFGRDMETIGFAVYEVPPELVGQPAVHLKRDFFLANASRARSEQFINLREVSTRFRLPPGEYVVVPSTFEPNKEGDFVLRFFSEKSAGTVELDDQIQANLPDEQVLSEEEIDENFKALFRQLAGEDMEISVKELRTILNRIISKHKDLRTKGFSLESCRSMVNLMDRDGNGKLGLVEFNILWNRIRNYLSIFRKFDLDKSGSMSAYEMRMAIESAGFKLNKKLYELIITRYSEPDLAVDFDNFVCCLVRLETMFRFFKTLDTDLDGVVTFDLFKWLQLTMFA
T1 sequence (P04632 1-268 partner): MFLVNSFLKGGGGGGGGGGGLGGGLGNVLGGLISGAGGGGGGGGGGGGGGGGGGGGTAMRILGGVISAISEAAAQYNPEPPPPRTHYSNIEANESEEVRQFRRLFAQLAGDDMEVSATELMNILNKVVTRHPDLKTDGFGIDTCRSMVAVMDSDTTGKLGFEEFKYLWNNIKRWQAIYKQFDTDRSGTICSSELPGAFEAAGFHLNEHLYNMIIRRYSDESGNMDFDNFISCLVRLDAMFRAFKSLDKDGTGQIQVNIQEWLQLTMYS
Description: as §1

[2] = biological target: T2, proteasome chymotrypsin-like activity in living Jurkat cells (Homo sapiens, UniProt P28074); test: Proteasome chymotrypsin-like activity in living Jurkat T cells; assay type: cell-based; conditions: 10 μM, living Jurkat cells
T2 construct: endogenous in cells; host or cells: Jurkat T cells (whole cell extract or intact cells)
Description: FIG. 10. Inhibition of the chymotrypsin-like activity by tannic acid in intact Jurkat T cells. Intact Jurkat T cells (1×10^5 cells/ml/well) are cultured in 24-well plates. These cells are first incubated for 12 h with various concentrations of tannic acid as indicated, followed by an additional 2 h-incubation with a fluorogenic peptide substrate, Suc-Leu-Leu-Val-Tyr-AMC for the chymotrypsin-like activity. Then, cell medium (200 μl per sample) is collected and used for measurement of free AMCs.
Inhibition of the proteasome activity in living cells by tea polyphenols—To measure inhibition of the chymotrypsin-like activity in living tumor cells, Jurkat T (1×10^5 cells/ml/well), MCF7 or PC-3 cells (1×10^4 cells/ml/well) are cultured in 24-well plates. These cells are first incubated for 12 h with various concentrations of EGCG, EGC, β-lactone or LLnL, followed by an additional 2 h-incubation with fluorogenic peptide substrates, Suc-Leu-Leu-Val-Tyr-AMC for the chymotrypsin-like activity and Z-Gly-Gly-Arg-AMC for the trypsin-like activity. After that, cell medium (200 μl per sample) is collected and used for measurement of free AMCs.

[3] = biological target: T3, proteasome activity in MCF-7 cells (Homo sapiens, UniProt P28072+P28074+Q99436); test: Proteasome activity in lysate of pretreated MCF-7 cells; assay type: cell-based; conditions: MCF-7 cells pretreated with inhibitor
T3 construct: endogenous in cells; host or cells: MCF-7 cells, pretreated and then lysed
T3 sequence (P28074 60-263): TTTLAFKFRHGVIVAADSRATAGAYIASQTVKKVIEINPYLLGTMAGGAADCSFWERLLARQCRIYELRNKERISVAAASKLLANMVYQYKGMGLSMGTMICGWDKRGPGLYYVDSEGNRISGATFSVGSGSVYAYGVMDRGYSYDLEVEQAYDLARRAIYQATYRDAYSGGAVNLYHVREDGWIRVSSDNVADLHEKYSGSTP
T3 sequence (P28072 1-239): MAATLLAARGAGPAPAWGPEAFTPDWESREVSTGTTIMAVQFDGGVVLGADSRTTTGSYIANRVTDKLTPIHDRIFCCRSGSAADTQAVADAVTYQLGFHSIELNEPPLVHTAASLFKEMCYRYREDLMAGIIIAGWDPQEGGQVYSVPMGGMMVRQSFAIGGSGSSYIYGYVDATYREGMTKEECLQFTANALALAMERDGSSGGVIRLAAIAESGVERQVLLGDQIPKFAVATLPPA
T3 sequence (Q99436 44-277): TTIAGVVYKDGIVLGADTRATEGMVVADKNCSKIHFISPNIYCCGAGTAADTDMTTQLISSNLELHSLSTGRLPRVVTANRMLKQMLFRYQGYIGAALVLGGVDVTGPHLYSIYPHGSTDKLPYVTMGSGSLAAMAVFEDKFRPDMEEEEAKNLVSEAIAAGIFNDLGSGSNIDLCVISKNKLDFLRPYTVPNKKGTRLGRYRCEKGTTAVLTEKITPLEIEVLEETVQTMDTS
Description: (a) The selected cell lines are treated with EGCG (vs. EGC) or ECG (vs. EC) at various concentrations (0-80 μM) for up to 96 h, followed by preparation of protein extracts and measurement of the proteasomal chymotrypsin-like, trypsin-like and PGPH activities and the calpain activity in cell-free assay. […] Thus, a protein extract of breast cancer cells pretreated with EGCG also contains decreased levels of the proteasome activity.

[4] = biological target: chymotrypsin-like activity of purified 20S proteasome; assay type: biochemical; conditions: read-out: IC50 towards the chymotrypsin-like activity of purified 20S proteasome
Description: as §1, §2

[5] = biological target: T4, caspase-3-like activity in Jurkat T cell extract (Homo sapiens, UniProt P42574); test: Caspase-3 activity assay in Jurkat T cell extract; assay type: biochemical
T4 construct: endogenous in cells; host or cells: Jurkat T cell whole cell extract
T4 sequence (P42574 29-175 limits assumed): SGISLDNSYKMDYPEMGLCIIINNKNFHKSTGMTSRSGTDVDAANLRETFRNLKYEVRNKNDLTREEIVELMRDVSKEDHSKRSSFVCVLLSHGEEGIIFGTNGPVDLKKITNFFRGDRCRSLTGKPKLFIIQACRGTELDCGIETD
T4 sequence (P42574 176-277 limits assumed): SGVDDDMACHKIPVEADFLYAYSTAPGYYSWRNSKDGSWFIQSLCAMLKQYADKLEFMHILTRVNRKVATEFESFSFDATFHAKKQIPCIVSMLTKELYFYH
Description: Calpain I and Caspase-3 activities assays with tea polyphenols—To measure calpain I activity, 3 μg purified calpain I (Human Erythrocytes, Calbiochem) is incubated with 40 μM of a fluorogenic peptide substrate, Suc-Leu-Tyr-AMC (Calbiochem), for 30 min at 37° C. in 100 μl of assay buffer (50 mM Tris-HCl, pH 7.5, containing 50 mM NaCl, 1 mM EDTA, 1 mM EGTA, 5 mM β-Mercaptoethanol, 5 mM CaCl2, and 0.1% CHAPS), with or without EGCG. After incubation, the reaction mixture is diluted to 200 μl with the assay buffer, and the hydrolyzed AMCs are quantified as described above. For caspase-3 activity assay, the whole cell extract (3.5 μg) from Jurkat T cells is incubated for 90 min at 37° C. with 20 μM of a fluorogenic peptide substrate, Ac-Asp-Glu-Val-Asp-AMC. These procedures were similar to those of the proteasome assay with cell free extracts described above.

Sequence of chymotrypsin-like activity of purified 20S proteasome (UniProt Q9P992) (Q9P992 whole entry): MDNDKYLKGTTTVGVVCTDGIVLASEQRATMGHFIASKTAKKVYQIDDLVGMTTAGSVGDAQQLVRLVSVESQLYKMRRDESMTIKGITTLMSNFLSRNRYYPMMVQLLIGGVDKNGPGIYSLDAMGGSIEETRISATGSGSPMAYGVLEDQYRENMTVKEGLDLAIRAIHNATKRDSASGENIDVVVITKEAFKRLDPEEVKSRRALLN
Sequence of chymotrypsin-like activity of purified 20S proteasome (Q9P992 whole entry): as above

Compound: Oc1cc(O)c2c(c1)OC(c1ccc(O)c(O)c1)C(O)C2 (single isomer, unassigned; (-)) [C, (−)-catechin]
inhibition of purified 20S proteasome chymotrypsin-like activity (in words) [1]: do not inhibit the proteasome activity

inhibition of purified calpain activity (in words) (purified calpain I): able to inhibit
Compound: CCCC[C@@H](C=O)NC(=O)[C@H](CC(C)C)NC(=O)OCc1ccccc1 [Calpeptin, calpeptin, reference compound]

Compound: Oc1cc(O)c2c(c1)O[C@H](c1cc(O)c(O)c(O)c1)[C@@H](O)C2 [GC, (−)-gallocatechin]
inhibition of purified 20S proteasome chymotrypsin-like activity (in words) [1]: do not inhibit the proteasome activity

Compound: CCCC[C@@H](C=O)NC(=O)[C@H](CC(C)C)NC(=O)[C@H](CC(C)C)NC(C)=O [LLnL, reference compound] (Ac-Leu-Leu-[Nle]-aldehyde)
inhibition of chymotrypsin-like activity [2]: 40%

proteasome activity in lysate of pretreated cells [3]: decreased levels of proteasome activity
Compound: CCC[C@@H](C=O)NC(=O)[C@H](CC(C)C)NC(=O)[C@H](CC(C)C)NC(=O)OCc1ccccc1 [LLnV] (Cbz-Leu-Leu-[Nva]-aldehyde)

Compound: O=C(O)c1cc(O)c(O)c(O)c1 [gallic acid, reference compound]
fold less potent than EGCG ([1]; ratio of IC50 to EGCG): 83,000 fold
IC50 [4]: 7100 µM

Compound: COC(=O)c1cc(O)c(O)c(O)c1 [methyl gallate, reference compound]
inhibition of purified 20S proteasome chymotrypsin-like activity (in words) [1]: more potent than gallate

Compound: CC(C)[C@H](O)[C@@]12NC(=O)[C@H](C)[C@@H]1OC2=O [β-lactone, clastolactacystin β-lactone, reference compound]
IC50 [1]: 0.6 µM
inhibition of chymotrypsin-like activity [2]: 20%

Compound: (−)-catechin-3-gallate [CG]
IC50 [1]: 0.124 µM

Compound: (−)-epicatechin-3-gallate [ECG]
IC50 [1]: 0.194 µM

Compound: (−)-gallocatechin-3-gallate [GCG]
IC50 [1]: 0.187 µM

inhibition of caspase-3-like activity (in words) [5]: blocked
Compound: Ac-DEVD-CMK [reference compound]
